Results on five molecules are retold here after publication PMC6609550, “Blockade of the forward Na^+/Ca^2+ exchanger suppresses the growth of glioblastoma cells through Ca^2+‐mediated cell death” (British Journal of Pharmacology, 2019).

What all share (type): cell-based, Human
One series concerns [Ca^2+]i in U87 cells. Kind of series: Ca2+ imaging (Fluo-4 AM) of U87 cells. As for the experimental part: (§1) Cells were cultured in 96‐well plates at 8 × 10^3 per well and loaded with the cell membrane‐permeable Ca^2+ dye Fluo‐4 AM (5 μM) in 100‐μl HEPES‐buffered solution for 50 min. The solution contained (mM): 135 NaCl, 3 KCl, 2 CaCl2, 1 MgCl2, 10 glucose, and 10 HEPES, supplemented with 1% FBS at pH 7.4. To prepare the Ca^2+‐free solution, 2‐mM CaCl2 was replaced with 1‐mM EGTA in the HEPES‐buffered solution. The 96‐well plate containing the Fluo‐4 AM‐loaded cells was mounted in a Leica TCS SP8 confocal system (Leica Microsystems, Wetzlar, Germany). The confocal microscope armed with 488‐nm laser light was employed to excite the dynamic fluorescent signals in time and synchronously, while test regents were added to cells. To do Na^+ imaging, Fluo‐4 AM was replaced with the cell membrane‐permeable Na^+ dye Asante NaTrium Green‐2 AM (ANG‐2 AM) at 5 μM, which was excited by 514‐nm laser light. Visual inspection and fluorescent imaging were carried out at room temperature. The imaging data were analysed with the software https://leica-las-af-lite.software.informer.com/ 2.5 (Leica). The imaging traces shown are representative of at least three separate experiments; 12–18 cells were imaged in each experiment.

In a further series the test system is SF188 cells. As to the kind of experiment: Cell viability assay (Cell Counting Kit-8), SF188. The settings on record: 72 hr, CCK-8; mean ± SEM. How it is done: (§2) Cell viability was determined by using a Cell Counting Kit‐8 (Dojindo, Japan). Briefly, cells were harvested from flasks and plated in 96‐well cell culture plates at 5 × 10^3 per well and cultured overnight. […] Control cells were treated with cell culture medium and measured at the same time point as treatment groups. CCK‐8 solution (10 μl) was added to each well of the 96‐well plates, and the cultures were incubated for 30 min at 37°C. Absorbance at 450 nm was measured using an automatic microplate reader (Molecular Devices, San Jose, CA, USA).
(§3) Figure 2 Effect of the Na^+/Ca^2+ exchanger (NCX) blockers on viability of human glioblastoma cell lines. (a, b) Viability of adult glioblastoma cell lines (U87 and U251) after exposure to NCX blockers bepridil, KB‐R7943, SEA0400, SN‐6, or YM244769 at 0–100 μM for 72 hr. n = 5 independent tests per group. (c) Viability of paediatric glioblastoma cell line SF188 after 72‐hr incubation with the same NCX blockers at 0–100 μM. n = 5 independent tests per group. (d) For U87, U251, and SF188 cell lines, concentration of the NCX blockers required to produce half maximal inhibition (IC50: μM, mean ± SEM) of cell viability.

Series [1] relates to U87 cells. Kind of series: Cell viability assay (Cell Counting Kit-8), U87. Particulars: 72 hr, CCK-8; mean ± SEM. As for the experimental part:
as §2, §3

In series [2] the test system is U87 cells. As to the kind of experiment: Cell cycle assay (PI staining, flow cytometry) of U87 cells. Particulars: bepridil 25 μM 6–24 hr, CB‐DMB 3.5 μM 6–24 hr, KB‐R7943 25 μM 18 hr, BAPTA‐AM 10 μM 18 hr, CC‐930 10 μM, PD169316 10 μM 18 hr. How it is done:
(§4) U87 cells were seeded in six‐well plates (Corning, Corning, NY, USA) with 1 × 10^6 cells per well and treated with NCX blockers, BAPTA‐AM, or MAPK inhibitors. Drug treatment was performed by the person who is blinded to the experimental groups. After treatment, cells were harvested in 15‐ml tubes and washed with cold sterile PBS. After being centrifuged, cells were fixed with 70% ethanol […] at 4°C for at least 1 hr. For propidium iodide (PI) staining, cells were washed one time with PBS and then were treated with ribonuclease A (RNase; 100 μg·ml^−1) for 30 min. PI (10 μg·ml^−1) was added, and stained cells were kept in the dark at 4°C until analysis. The number of cells analysed for each sample was 10,000 events. FACS analysis was performed using the Coulter CytoFlexS flow cytometer (Beckman Coulter, CA, USA), and the percentage of cells in the G0/G1, S, and G2/M phases was determined using cell cycle analysis software, ModFit LT 5.0 (Verity Software House, Topsham, ME, USA). For the apoptosis assay, cells were harvested and washed twice with cold PBS and resuspended at a density of 1 × 10^6 cells·ml^−1 in 100 μl of binding buffer containing 5 μl of Annexin V–FITC and 5 μl of PI working solution (100 μg·ml^−1). After incubation at room temperature for 15 min in the dark, 400 μl of binding buffer was added to each sample. Apoptosis was analysed by Coulter CytoFlexS flow cytometer (Beckman Coulter) for at least 10,000 events, and data were analysed with the software, CyExpert 2.0 (Beckman Coulter).

Another series relates to [Na^+]i in U87 cells. As to the kind of experiment: Na+ imaging (ANG-2 AM) of U87 cells. Particulars: bepridil 50 μM, KB‐R7943 50 μM, CB‐DMB 4 μM. As for the experimental part: as §1
For series [3], the system named is U87 cells. As to the kind of experiment: Annexin V–FITC/PI apoptosis assay of U87 cells. Particulars: for Effect on apoptosis (Annexin V+ cells), compound alone: bepridil 25 μM 6–48 hr, CB‐DMB 3.5 μM 6–48 hr, KB‐R7943 25 μM 20 hr, BAPTA‐AM 10 μM 18 hr, CC‐930 10 μM, PD169316 10 μM. How it is done: as §4
For the next series, the system named is U251 cells. As to the kind of experiment: Cell viability assay (Cell Counting Kit-8), U251. Particulars: 72 hr, CCK-8; mean ± SEM. How it is done:
as §2, §3

The test system of a further series is forward NCX. As to the kind of experiment: Whole-cell patch-clamp recording of forward-mode NCX currents in U87 cells. Particulars: for IC50: forward NCX current measured at −110 mV, mean ± SEM, n = 4, read-out: IC50, blocking forward NCX (currents); for Inhibition of the forward NCX currents (in words): −110 mV, SEA0400 0.1–100 μM, SN‐6 and YM244769 0.1–30 μM. As for the experimental part: (§5) Whole‐cell patch‐clamp recording was performed using a Multiclamp 700B amplifier (Molecular Devices, Foster City, CA, USA) at room temperature. Voltage protocols were provided and current recorded via a DigiData‐1550B interface (Molecular Devices) controlled by pClamp 10 Software (Molecular Devices, RRID:SCR_011323). […] Internal solution consisted of (in mM): 120 CsCl, 20 NaCl, 2 MgCl2, 13 CaCl2, 2 Na2ATP, 20 BAPTA, and 10 HEPES at a pH 7.2. […] Series resistance was compensated by 75–85%. Linear leak and residual capacitance currents were subtracted online using a P/4 protocol of the pClamp 10. For the recording of the membrane currents related to the NCX, cells were held at −50 mV and depolarized to +60 mV, and then a voltage ramp starting from +60 to −120 mV was applied for 1,000 ms before returning back to −50 mV. The reverse and forward NCX currents were measured at +50 and −110 mV holding potentials respectively (Molinaro et al., 2008; Rahman, Inman, Kiss, & Janssen, 2012; Song, Chen, & Yu, 2014). Data were filtered at 3 KHz and digitized at sampling rates of 20 KHz. For drug application, cells were perfused with a VC‐6 Six Channel Perfusion Valve Control Systems (Warner Instruments, Greenwich, CT, USA) connected to a gravity‐fed perfusion systems.
(§6) Data are expressed as mean ± SEM and analysed by Prism 7 software, La Jolla, CA (GraphPad Prism, RRID:SCR_002798). The data and statistical analysis comply with the recommendations of the British Journal of Pharmacology on experimental design and analysis in pharmacology. Concentrations of the NCX blockers (IC50) exerting half‐maximal inhibition of NCX currents were obtained by fitting the concentration–response with the equation: I/I0*100%=Bottom+Top−Bottom/1+10^((^Log^IC50−C)*n) , where I 0 and I are current amplitudes measured in control and in the presence of NCX blockers, C is the logarithm of concentration, and n is the Hill coefficient. The statistical difference between two independent groups was analysed by Student's parametric unpaired t test. And the original data of more than two groups were assessed by the parametric one‐way ANOVA followed by a Tukey's post hoc test. The data for cell viability and Western blot were usually normalized to the control group, and were thus analysed by the non‐parametric Kruskal–Wallis test followed by a Dunn's post hoc test. Differences were considered to be significant when P < .05. Post hoc tests were conducted when the F value achieved the necessary level (P < .05) and there was no significant variance inhomogeneity.
(§7) We characterized the membrane currents associated with NCX activity in glioblastoma cells using whole‐cell patch‐clamp recording. […] The NCX current in its reverse mode (Ca^2+ entry) was measured at +50, and the forward‐mode current (Ca^2+ exit) was measured at −110 mV. The Ni^2+ (10 mM) was employed to inhibit and identify the NCX currents in its either reverse or forward mode as previously reported (Maack, Ganesan, Sidor, & O'Rourke, 2005).

The nature of series [4]: Cell viability assay (Cell Counting Kit-8), ranges given for U87 and U251 together. The settings on record: human, U87 and U251 cells, read-out: Cell viability, % of control level. How it is done:
Cell viability was determined by using a Cell Counting Kit‐8 (Dojindo, Japan). Briefly, cells were harvested from flasks and plated in 96‐well cell culture plates at 5 × 10^3 per well and cultured overnight. Cells were treated with test reagents for 72 hr. Control cells were treated with cell culture medium and measured at the same time point as treatment groups. CCK‐8 solution (10 μl) was added to each well of the 96‐well plates, and the cultures were incubated for 30 min at 37°C. Absorbance at 450 nm was measured using an automatic microplate reader (Molecular Devices, San Jose, CA, USA).

The next series relates to reverse NCX. Kind of series: Whole-cell patch-clamp recording of reverse-mode NCX currents in U87 cells. The settings on record: reverse NCX current measured at +50 mV, mean ± SEM, n = 4, read-out: IC50, blocking reverse NCX (currents). How it is done: as §5, §6, §7

Take `Cc1ccc(CNC(N)=NC(=O)c2nc(Cl)c(NCc3ccc(Cl)cc3)nc2N)c(C)c1` [CB‐DMB, [N‐(4‐chlorobenzyl)]2,4‐dimethylbenzamyl]: the “Effect on intracellular Ca2+ pool and ER Ca2+ transporting” value in series [Ca^2+]i in U87 cells (Ca2+‐free solution, followed by 5‐μM thapsigargin) is listed as “did not affect the ER Ca^2+ transporters”. Further, the “Effect on [Ca2+]i level” value in series [Ca^2+]i in U87 cells (solution containing 2‐mM Ca2+, bepridil or KB‐R7943 25 or 50 μM, CB‐DMB 2 and 4 μM) was “elevated [Ca^2+]i”. The values for the IC50 in the series with SF188 cells, with U87 cells [1] and in the series on U251 cells were 2600 ± 100 nM, 3.1 ± 0.6 µM and 2700 ± 100 nM, respectively. Moreover, the “Effect on cell cycle distribution, compound alone” value in the series on U87 cells [2] is “induced G0/G1 arrest”. The “Effect on intracellular Na+ [Na+]i level” value in series [Na^+]i in U87 cells is reported as “did not change”. Further, the “Effect on apoptosis (Annexin V+ cells), compound alone” value in the series on U87 cells [3] is “activated apoptosis in time‐dependent manner”.
For `Cl.Cl.Nc1cccc(CNC(=O)c2ccc(Oc3ccc(OCc4cccc(F)c4)cc3)nc2)c1` [YM244769, N‐[(3‐aminophenyl)methyl]‐6‐[4‐[(3‐fluorophenyl)methoxy]phenoxy]‐3‐pyridinecarboxamide dihydrochloride], in the series on forward NCX, the IC50 is greater than 30 µM and the “Inhibition of the forward NCX currents (in words)” value (“Inhibition” for short) was “without inhibition of the forward NCX currents”. Further, in [4], the viability at 72 h, 10 µM lay within 87 to 100%; the viability at 72 h, 20 µM is 84 to 96%; the viability at 72 h, 50 µM fell in the range of 71 to 76%. Also, the concentration for half-maximal inhibition (IC50) with reverse NCX was found to be 4.5 ± 1.1 µM.
In the case of `CCOc1ccc(Oc2ccc(OCc3cc(F)ccc3F)cc2)c(N)c1` [SEA0400, 2‐[4‐[(2,5‐difluorophenyl)methoxy]phenoxy]‐5‐ethoxyaniline], in the series with forward NCX, the IC50 was greater than 30 µM and the “Inhibition” value was “without inhibition of the forward NCX currents”. In addition, in series [4], the viability at 72 h, 10 µM fell in the range of 93 to 106%; the viability at 72 h, 20 µM was in the range of 88 to 103%; the viability at 72 h, 50 µM fell in the range of 72 to 92%. Also, the IC50 with reverse NCX amounted to 3.6 ± 1.2 µM.
For `CCOC(=O)C1CSC(Cc2ccc(OCc3ccc([N+](=O)[O-])cc3)cc2)N1` (stereo not shown) [SN‐6, 2‐[[4‐[(4‐nitrophenyl)methoxy]phenyl]methyl]‐4‐thiazolidinecarboxylic acid ethyl ester], in the series on forward NCX, the IC50 was greater than 30 µM and the “Inhibition” value is “without inhibition of the forward NCX currents”. Further, in series [4], the viability at 72 h, 10 µM fell in the range of 87 to 97%; the viability at 72 h, 20 µM lay in the range of 86 to 99%; the viability at 72 h, 50 µM is 74 to 104%. Also, the IC50 in the series on reverse NCX came to 3.2 ± 1.2 µM.
Regarding `O[C@H]1CC[C@H](Nc2ncc3nc(Nc4c(F)cc(F)cc4F)n([C@H]4CCOC4)c3n2)CC1` [CC‐930, tanzisertib], the “Effect on apoptosis (Annexin V+ cells), compound alone” value in the series with U87 cells [3] is given as “did not activate apoptosis”. In addition, the “Effect on bepridil-induced apoptosis” value with U87 cells [3] (bepridil 25 μM 24 hr, pretreatment BAPTA‐AM 10 μM, CC‐930 10 μM or PD169316 10 μM) is given as “attenuated”.
